In general, melting point refers to the temperature, or range, at which the solid turns liquid.

`O=C1NC(c2ccc(OCCO)cc2)N2CCC(=NO)c3cccc1c32` (centres unmarked) [Example 60, 7-hydroxyimino-3-(4-hydroxyethoxyphenyl)-6,7-dihydro-3H,5H-pyrido[3,2,1-ij]quinazoline-1(2H)-one] returned a melting point of 183.9 to 186.3 °C. The value for `NC1CCN2c3c(cccc31)C(=O)NC2c1ccc(C(=O)O)cc1` (centres unmarked) [Example 127, 7-amino-3-(4-carboxyphenyl)-6,7-dihydro-3H,5H-pyrido[3,2,1-ij]quinazolinone-1-(2H)-one] was 232.3 to 238.7 °C; that for `N#Cc1ccc(C2NC(=O)c3cccc4c3N2CCC4=O)cc1` (centres unmarked) [Example 16, 3-(4-cyanophenyl)-6,7-dihydro-3H,5H-pyrido[3,2,1-ij]quinazoline-1,7(2H)-dione] was 134 to 146.9 °C. Consider `COc1ccc(C2NC(=O)c3cccc4c3N2CCC4=O)cc1Br` (centres unmarked) [Example 27, 3-(3-bromo-4-methoxyphenyl)-6,7-dihydro-3H,5H-pyrido[3,2,1-ij]quinazoline-1,7(2H)-dione], for which the melting point is 212.8 to 215.7 °C. The value for `N#Cc1ccc(C2NC(=O)c3cccc4c3N2CCC4=NO)cc1` (centres unmarked) [Example 74, 3-(4-cyanophenyl)-7-hydroxyimino-6,7-dihydro-3H,5H-pyrido[3,2,1-ij]quinazoline-1(2H)-one] was > 250 °C; that for `COc1ccc([C@H]2NC(=O)c3cccc4c3N2CC[C@@H]4N)cc1` [Example 6, (−)-(3S,7S)-7-amino-3-(4-methoxyphenyl)-6,7-dihydro-3H,5H-pyrido[3,2,1-ij]quinazoline-1(2H)-one] was 110 to 112.7 °C; that for `COc1ccc(C2NC(=O)c3cc(OC(F)(F)F)cc4c3N2CCC4=NO)cc1` (centres unmarked) [Example 50, 7-hydroxyimino-3-(4-methoxyphenyl)-9-trifluoromethoxy-6,7-dihydro-3H,5H-pyrido[3,2,1-ij]quinazoline-1(2H)-one] was 232.7 to 234.3 °C.

The compound `CON=C1CCN2c3c(cccc31)C(=O)NC2c1ccc([N+](=O)[O-])cc1` (centres unmarked) [Example 71, 7-methoxyimino-3-(4-nitrophenyl)-6,7-dihydro-3H,5H-pyrido[3,2,1-ij]quinazoline-1(2H)-one] gave a melting point of 112.9 to 116.4 °C. The result for `COc1ccc(C2NC(=O)c3cccc4c3N2CCC4N(C)C)cc1` (centres unmarked) [Example 135, 7-dimethylamino-3-(4-methoxyphenyl)-6,7-dihydro-3H,5H-pyrido[3,2,1-ij]quinazoline-1(2H)-one] reads 188.2 to 192.4 °C; that for `COc1ccc(C2NC(=O)c3ccc(Cl)c4c3N2CCC4=O)cc1` (centres unmarked) [Example 25, 8-chloro-3-(4-methoxyphenyl)-6,7-dihydro-3H,5H-pyrido[3,2,1-ij]quinazoline-1,7(2H)-dione], 209.4 to 213.1 °C. The result for `O=C(O)c1ccc(C2NC(=O)c3cccc4c3N2CCC4=O)cc1` (centres unmarked) [Example 22, 3-(4-carboxyphenyl)-6,7-dihydro-3H,5H-pyrido[3,2,1-ij]quinazoline-1,7(2H)-dione] reads 154.3 to 158.9 °C; that for `COc1ccc(C2NC(=O)c3cccc4c3N2CCC4NC(=O)C2CCN(C)CC2)cc1` (centres unmarked) [Example 134, 7-(1-methylpiperidine-4-yl)carbonylamino-3-(4-methoxy-phenyl)-6,7-dihydro-3H,5H-pyrido[3,2,1-ij]quinazoline-1(2H)-one], 252.3 to 253.1 °C; that for `O=C1CCN2c3c1cccc3C(=O)NC2c1ccc(SC(F)(F)F)cc1` (centres unmarked) [Example 45, 3-(4-trifluoromethylthiophenyl)-6,7-dihydro-3H,5H-pyrido[3,2,1-ij]quinazoline-1,7(2H)-dione], 178.2 to 180.9 °C. The result for `O=C1NC(c2ccc(F)cc2)N2CCC(=NO)c3cccc1c32` (centres unmarked) [Example 76, 3-(4-fluorophenyl)-7-hydroxyimino-6,7-dihydro-3H,5H-pyrido[3,2,1-ij]quinazoline-1(2H)-one] reads 247.1 to 252.3 °C.
